Experimental data reported in US20090264383A1, “Inhibitor of Adenylyl Cyclase for Treating a Disorder of the Circadian Rhythm” (Medical Research Council, priority 2006, published 2009).
Entries after “also recorded” stand apart in the source; their conditions may differ.

Columns and labels:
organotypic SCN slices = test: Bioluminescence recording of circadian gene expression in organotypic SCN slices (mPer1::luc / PER2::LUC); assay type: cell-based, mice; conditions: for effect on circadian period / effect on circadian amplitude / gene expression: wild-type mPer1::luc / PER2::LUC SCN slices; for synchrony of SCN neurons (CCD imaging): 1.0 μM MDL for over 7 days, PER2::LUC slice; for rescue of circadian gene expression in MDL-treated SCN slices: PER2-LUC SCN slices pre-treated with MDL (2.5 μM), Epac agonist 100 μM
Method: (§1) Per1::luciferase and; Per2-luc transgenic mice were used. For organotypic slice culture, brains were removed from pups 5-10 days old and sectioned at 300 um with a McIlwain “Tissue Chopper.” Slices were sorted and trimmed to contain principally SCN tissue and placed onto a Millipore membrane insert (PICMORG) for culture at 37° C. in 5% CO2 as described previously (Gainer et al, 1998).
Recordings of luciferase activity from organotypic slices of SCN or peripheral tissues were made from 5-7 day old pups from PER2::LUC and, Per1::LUC mice using either photomultiplier assemblies for whole tissue emission or CCD camera for single SCN cell imaging (Hamamatsu Photonics Ltd, U.K.) as described May Wood et al 2006 Curr. Biol. Vol. 16 pp 599-605. cAMP-ELISA kit was purchased from R&D systems (Wiesbaden, Germany). NIH 3T3 cells were cultured as described (Kume et al 1999 Cell Vol 98 pp 193-205) and transfected using Genejuice (Novagen, San Diego, Calif.). […] Drugs were solubilized in medium or dimethylsulfoxide (DMSO) to make stock solutions 50-1000× the working solutions. [DMSO] was never greater than 0.4%. RNA-interference against Epac1 and Epac 2 used pre-validated sequences as instructed (Validated Stealth RNAi, Invitrogen, CA). Western Blots were performed as Reddy et al (2006 Curr. Biol. Vol 16 oo 1107-15). Behavioural rhythms, recorded by running wheel and passive infra-red movement detectors, were analysed in Clocklab (Actimetrics, Evanston Ill.). Central cannulae directed stereotaxically at the SCN and sub-cutaneous minipumps (Alzet® model 1002 pump and brain infusion kit II) for drug infusion were fitted as instructed (Durect Corp. Cupertino, Calif.).
(§2) Statistical analysis was performed using Prism GraphPad™ and Statview™. Periods were calculated over ≧3 days recoding For comparative purposes, transcriptional amplitude from PMT recordings was calculated as 100× (post-treatment emission peak-trough/pre-treatment peak-trough). In all cases error bars indicate SEM about the mean where n≧3.

Water solubility = assay type: physicochemical
Clock mutant SCN = test: Circadian period in Clock heterozygous and homozygous mutant SCN; assay type: cell-based, mice
Method: (§3) Recordings of luciferase activity from organotypic slices of SCN or peripheral tissues were made from 5-7 day old pups from PER2::LUC and, Per1::LUC mice using either photomultiplier assemblies for whole tissue emission or CCD camera for single SCN cell imaging (Hamamatsu Photonics Ltd, U.K.) as described May Wood et al 2006 Curr. Biol. Vol. 16 pp 599-605. cAMP-ELISA kit was purchased from R&D systems (Wiesbaden, Germany). NIH 3T3 cells were cultured as described (Kume et al 1999 Cell Vol 98 pp 193-205) and transfected using Genejuice (Novagen, San Diego, Calif.). All drugs were purchased from Sigma-Aldrich (Poole, UK) except PKA/Epac-active cAMP analogues (Axxora; Grünberg; Germany) and KT5720 (Calbiochem, Nottingbam, UK). Drugs were solubilized in medium or dimethylsulfoxide (DMSO) to make stock solutions 50-1000× the working solutions. [DMSO] was never greater than 0.4%. RNA-interference against Epac1 and Epac 2 used pre-validated sequences as instructed (Validated Stealth RNAi, Invitrogen, CA). Western Blots were performed as Reddy et al (2006 Curr. Biol. Vol 16 oo 1107-15). Behavioural rhythms, recorded by running wheel and passive infra-red movement detectors, were analysed in Clocklab (Actimetrics, Evanston Ill.). […]

NIH 3T3 cells [1] = test: Circadian gene expression in NIH 3T3 cells transfected with mBmal1::luc reporter; assay type: cell-based, mouse; conditions: for effect on circadian period: 3T3 fibroblasts; for effect on circadian gene expression / output: mBmal1::luc reporter
Source text: Inhibition of the Gsα-binding site of AC caused a dose-dependent, reversible, dampening of circadian gene expression from Per1::luciferase organotypic SCN slice cultures, monitored by photomultiplier tubes. To determine the generality of this effect, we examined 3-T3 fibroblast cells. Abrogation of the endogenous oscillation of cAMP concentration stopped circadian gene expression as reported by Bmal1::luciferase reporter constructs P-site AC inhibition prolonged fibroblast period from ca. 21 hours to ca. 30 hours.
(§4) Recordings of luciferase activity from organotypic slices of SCN or peripheral tissues were made from 5-7 day old pups from PER2::LUC and, Per1::LUC mice using either photomultiplier assemblies for whole tissue emission or CCD camera for single SCN cell imaging (Hamamatsu Photonics Ltd, U.K.) as described May Wood et al 2006 Curr. Biol. Vol. 16 pp 599-605. cAMP-ELISA kit was purchased from R&D systems (Wiesbaden, Germany). NIH 3T3 cells were cultured as described (Kume et al 1999 Cell Vol 98 pp 193-205) and transfected using Genejuice (Novagen, San Diego, Calif.). All drugs were purchased from Sigma-Aldrich (Poole, UK) except PKA/Epac-active cAMP analogues (Axxora; Grünberg; Germany) and KT5720 (Calbiochem, Nottingbam, UK). Drugs were solubilized in medium or dimethylsulfoxide (DMSO) to make stock solutions 50-1000× the working solutions. [DMSO] was never greater than 0.4%. RNA-interference against Epac1 and Epac 2 used pre-validated sequences as instructed (Validated Stealth RNAi, Invitrogen, CA). Western Blots were performed as Reddy et al (2006 Curr. Biol. Vol 16 oo 1107-15). Behavioural rhythms, recorded by running wheel and passive infra-red movement detectors, were analysed in Clocklab (Actimetrics, Evanston Ill.). Central cannulae directed stereotaxically at the SCN and sub-cutaneous minipumps (Alzet® model 1002 pump and brain infusion kit II) for drug infusion were fitted as instructed (Durect Corp. Cupertino, Calif.).
as §2

peripheral tissues = test: Circadian recording in organotypic cultures of peripheral tissues from mPER2::LUC mice; assay type: cell-based
Method: as §3, with “RNA-interference against Epac1 and Epac 2 used pre-validated sequences as instructed (Validated Stealth RNAi, Invitrogen, CA). Western Blots were performed as Reddy et al (2006 Curr. Biol. Vol 16 oo 1107-15).” left out
Statistical analysis was performed using Prism GraphPad™ and Statview™. Periods were calculated over ≧3 days recoding For comparative purposes, transcriptional amplitude from PMT recordings was calculated as 100× (post-treatment emission peak-trough/pre-treatment peak-trough). […]

cAMP levels = test: cAMP ELISA in synchronised NIH 3T3 fibroblast cultures; assay type: cell-based, mouse; conditions: for cAMP levels: MDL at highest doses used
Method: as §1, §4

SCN = test: Free-running period of wheel-running behaviour, THFA infused to SCN by minipump and central cannula; assay type: in vivo; conditions: chronic central THFA vs vehicle; continuous dim red light; nine mice
Method: (a) Representative double-plotted, actograms of (left) vehicle- and (right) THFA-treated mice entrained to a photoschedule of 12 hours light (shaded) and 12 hours dark and fitted with osmotic mini-pump and central cannula directed at SCN (asterisk) Mice were then released into continuous dim-red light and free-running period determined Note longer period in THFA-treated mice.
as §3, with “[DMSO] was never greater than 0.4%. RNA-interference against Epac1 and Epac 2 used pre-validated sequences as instructed (Validated Stealth RNAi, Invitrogen, CA). Western Blots were performed as Reddy et al (2006 Curr. Biol. Vol 16 oo 1107-15).” left out

intact human neutrophils = conditions: Simchowitz et al 1983; cited from earlier work
JNK phosphorylation = test: Western blot of 3T3 cell extracts (JNK and CREB phosphorylation); assay type: cell-based, mouse; conditions: for JNK phosphorylation (pJNK): 3T3 cells, MDL 5.0 μm 40 hours, Epac agonist 100 μM, 2 hours; for CREB phosphorylation (pCREB): 3T3 cells given MDL, Epac agonist
Method: Epac had no effect on CREB phosphorylation.
as §4

NIH 3T3 cells [2] = test: Luciferase expression from control non-circadian promoter in NIH 3T3 cells; assay type: cell-based, mouse
adenylyl cyclase = conditions: irreversibly binds the Gsα site; cited from earlier work
circadian period = conditions: 0.3% lithium; 25% D2O; cited from earlier work
circadian clock = conditions: administered in the evening; cited from earlier work

C[C@H]1O[C@@H](n2cnc3c(N)ncnc32)C[C@@H]1O [2′,5′-dideoxyadenosine, 2′,5′-Dideoxyadenosine]
effect on circadian period (organotypic SCN slices): Reversible period lengthening; also recorded: Period was lengthened
solubility (Water solubility; water, read-out: water soluble up to): ≥ 125 mM

9-(Tetrahydro-2′-furyl)adenine [THFA]
saturating concentration of period lengthening (one-site inhibition model) (organotypic SCN slices; SCN slices): around 2 mM
circadian period under combined AC and JNK inhibition (organotypic SCN slices; THFA together with JNK inhibition, SCN and fibroblast clockwork): around 36 hours
period after removal of the drug (organotypic SCN slices; in vitro, after chronic incubation with THFA): approx. 24 hours
circadian period (organotypic SCN slices; mPer1::luc and mPER2-LUC SCN slices, dose-dependent increase from ca. 24): ~31 h
effect on circadian period (organotypic SCN slices): reversible increase of circadian period; also recorded: Extended circadian period; also recorded: Reversible period lengthening; also recorded: period effect; also recorded: rapidly reversible upon drug washout; also recorded: increased period in individual neurons
effect on circadian period (Clock mutant SCN): prolongs circadian period; also recorded: additive to that of the Clock mutation
probable maximum period increase (NIH 3T3 cells [1]; 1.2 mM THFA): approximately 9 hours
circadian period (NIH 3T3 cells [1]; 1.2 mM THFA, untreated about 21 hours): about 30 hours
effect on circadian period (NIH 3T3 cells [1]): Dose-dependent saturable period lengthening
circadian period (NIH 3T3 cells [1]; fibroblasts transfected with mBmal::luc reporter, lengthening from ca. 21): ~31 h
effect on circadian period (peripheral tissues; 2 mM THFA, all peripheral tissues tested): lengthens period; also recorded: dramatic increase in circadian period; also recorded: increases period in all tissues tested
basal cAMP levels (cAMP levels; THFA): maintains basal levels; also recorded: without affecting its nadir; also recorded: did not alter basal levels of cAMP
peak cAMP levels (cAMP levels; THFA): suppresses peak levels; also recorded: reduces the detectable, endogenous, biphasic rise in cAMP; also recorded: attenuated peak levels
free-running circadian period (SCN): lengthens circadian period; also recorded: lengthening of free-running period; also recorded: significantly (p<0:01, t-test) lengthened
water solubility (Water solubility): water-soluble; also recorded: most readily water soluble
toxicity (intact human neutrophils): non-toxic

CC(C)Cn1c(=O)n(C)c(=O)c2[nH]cnc21 [IBMX]
effect on circadian period (NIH 3T3 cells [1]): lengthened period in fibroblasts
effect of THFA combined with IBMX on circadian period (NIH 3T3 cells [1]; THFA 1 mM plus IBMX 300 uM): did not enhance the effect of THFA

Cl.c1ccc(C2CCCC2NC2=NCCCCCCCCCCC2)cc1 (stereo not drawn) [MDL-12,330A]
synchrony of SCN neurons (CCD imaging) (organotypic SCN slices): desynchronisation
synchrony of SCN neurons (CCD imaging) (organotypic SCN slices; listed as MDL): became desynchronised
effect on circadian amplitude / gene expression (organotypic SCN slices): reversible suppression of circadian protein expression; also recorded: reversible, dose-dependent dampening of circadian gene expression; also recorded: loss of circadian amplitude; also recorded: dampens transcriptional amplitude
effect on circadian period (organotypic SCN slices): not affected
effect on circadian amplitude / gene expression (organotypic SCN slices; listed as MDL): rapid, dose-dependent dampening of circadian cycling; also recorded: lost circadian amplitude
effect on circadian gene expression / output (NIH 3T3 cells [1]): dose dependent suppression of circadian gene expression
effect on circadian gene expression / output (NIH 3T3 cells [1]; listed as MDL): Reversible, dose-dependent suppression of circadian output
effect on circadian output (peripheral tissues; organotypic kidney slices from mPER-2-LUC mice): Reversible, dose-dependent suppression of circadian output
cAMP levels (cAMP levels): loss of measurable cAMP
cAMP levels (cAMP levels; listed as MDL): suppressed cAMP levels to below the sensitivity of detection
JNK phosphorylation (pJNK) (JNK phosphorylation): decline in JNK phosphorylation
luciferase expression from control, non-circadian promoter (NIH 3T3 cells [2]): no effect on luciferase expression
IC50 (adenylyl cyclase): 250 µM

CCCCCCOC(=O)[C@]1(O)C[C@@H]2O[C@@]1(C)n1c3ccccc3c3c4c(c5c6ccccc6n2c5c31)C(=O)NC4 [KT5720]
effect on circadian amplitude / gene expression (organotypic SCN slices): no significant effect
effect on circadian period (organotypic SCN slices): no significant effect

[2H]O[2H] [D2O]
lengthening of period (circadian period): approximately 5%

COC1C2OP(O)(=S)OCC2OC1n1c(Sc2ccc(Cl)cc2)nc2c(N)ncnc21 (stereo not drawn) [Sp-8-CPT-2′-O-Me-cAMPS]
rescue of circadian gene expression in MDL-treated SCN slices (organotypic SCN slices): dramatically restored circadian output
rescue of circadian gene expression in MDL-treated SCN slices (organotypic SCN slices; listed as Epac agonist): can be rescued; also recorded: acute activation and synchronisation of cellular circadian gene expression; also recorded: significantly increased luciferase activity; also recorded: transiently activated and re-synchronised circadian gene expression
effect on circadian amplitude / gene expression (organotypic SCN slices): no significant effect
effect on circadian period (organotypic SCN slices): no significant effect
CREB phosphorylation (pCREB) (JNK phosphorylation; listed as Epac): no effect
CREB phosphorylation (pCREB) (JNK phosphorylation; listed as Epac agonist): not pCREB
JNK phosphorylation (pJNK) (JNK phosphorylation; listed as Epac): significant increase in JNK activation
JNK phosphorylation (pJNK) (JNK phosphorylation; listed as Epac agonist): reverses the decline in JNK phosphorylation; also recorded: increased pJNK

COc1ccc2[nH]cc(CCNC(C)=O)c2c1 [Melatonin]
phase resetting effect on the circadian clock (circadian clock): approximately 30 minutes/day
